According to patent publication US8003658B2, “Quinazoline derivatives for inhibiting cancer cell growth and method for the preparation thereof” (Hanmi Holdings Co., Ltd., priority 2004, dated 2011):
Like-named read-outs stand apart in the source and are kept apart here.

How the values were obtained:
A431 (ATCC: CRL-1555) = test: Test of cancer cell growth inhibition (SRB), A431; conditions: read-out: IC50 A431
SK-Br3 (ATCC: HTB-30) = test: Test of cancer cell growth inhibition (SRB), SK-Br3; conditions: read-out: IC50 SK-Br-3
[1] = target: EGFR (EGFR type 1 kinase) (Homo sapiens, UniProt P00533); test: Inhibition of EGFR enzyme (fluorescence polarization kinase assay)
Procedure: 10 μl of EGFR (EGFR type 1 kinase) was added to each well of a 96-well microplate.
SW-620 (ATCC: CCL-227) = test: Test of cancer cell growth inhibition (SRB), SW-620; conditions: read-out: IC50 SW-620
[2] = EGFR overexpressed A431, 72 hours, SRB
[3] = SW-620 not having overexpressed EGFR and Erb-B2, 72 hours, SRB
[4] = Erb-B2 overexpressed SK-Br3, 72 hours, SRB

EGFR (EGFR type 1 kinase), sequence (P00533 25-1210, species assumed): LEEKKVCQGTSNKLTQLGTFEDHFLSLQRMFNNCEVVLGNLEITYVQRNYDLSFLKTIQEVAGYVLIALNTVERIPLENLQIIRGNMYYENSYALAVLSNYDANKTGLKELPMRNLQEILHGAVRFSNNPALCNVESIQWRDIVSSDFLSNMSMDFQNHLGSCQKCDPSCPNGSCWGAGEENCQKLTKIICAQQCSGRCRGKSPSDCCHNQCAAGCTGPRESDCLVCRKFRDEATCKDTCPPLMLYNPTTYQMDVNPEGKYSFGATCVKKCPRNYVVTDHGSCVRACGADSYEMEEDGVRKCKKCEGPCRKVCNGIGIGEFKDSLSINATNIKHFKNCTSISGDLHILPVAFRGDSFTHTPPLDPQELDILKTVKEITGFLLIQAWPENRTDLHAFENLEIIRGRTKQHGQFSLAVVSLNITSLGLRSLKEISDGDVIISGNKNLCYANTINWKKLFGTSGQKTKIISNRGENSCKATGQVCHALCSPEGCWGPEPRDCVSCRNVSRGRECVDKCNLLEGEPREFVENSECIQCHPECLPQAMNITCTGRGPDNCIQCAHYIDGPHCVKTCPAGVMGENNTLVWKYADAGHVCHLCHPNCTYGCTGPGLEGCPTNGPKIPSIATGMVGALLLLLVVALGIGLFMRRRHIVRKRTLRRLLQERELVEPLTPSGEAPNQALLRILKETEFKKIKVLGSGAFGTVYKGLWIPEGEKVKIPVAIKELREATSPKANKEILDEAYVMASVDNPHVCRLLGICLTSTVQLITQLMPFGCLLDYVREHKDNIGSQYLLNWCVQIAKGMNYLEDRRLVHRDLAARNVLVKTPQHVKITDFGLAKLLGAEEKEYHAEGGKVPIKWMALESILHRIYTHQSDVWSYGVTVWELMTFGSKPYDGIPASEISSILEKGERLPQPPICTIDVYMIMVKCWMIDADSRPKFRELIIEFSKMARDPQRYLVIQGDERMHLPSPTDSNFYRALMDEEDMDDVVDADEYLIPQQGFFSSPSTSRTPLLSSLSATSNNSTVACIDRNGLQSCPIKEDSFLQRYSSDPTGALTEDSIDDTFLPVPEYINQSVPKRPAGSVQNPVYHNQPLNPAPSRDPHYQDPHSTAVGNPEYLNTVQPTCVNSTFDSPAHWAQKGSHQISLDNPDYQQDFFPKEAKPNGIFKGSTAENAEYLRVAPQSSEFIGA

| Compound | IC50 (A431 (ATCC: CRL-1555); Homo sapiens, A-431, 72 h) | IC50 (SK-Br3 (ATCC: HTB-30); Homo sapiens, SK-BR-3, 72 h) | IC50 [1] | IC50 (SW-620 (ATCC: CCL-227); Homo sapiens, SW-620, 72 h) | IC50 (A431 (ATCC: CRL-1555); [2]) | IC50 (SW-620 (ATCC: CCL-227); [3]) | IC50 (SK-Br3 (ATCC: HTB-30); [4]) |
| --- | --- | --- | --- | --- | --- | --- | --- |
| C=CC(=O)NCC(C)C(=O)Nc1ccc2ncnc(Nc3ccc(OCc4cccc(F)c4)c(Cl)c3)c2c1 (stereo not drawn) [Example 44, N-(2-{4-[3-chloro-4-(3-fluoro-benzyloxy)-phenylamino]-quinazolin-6-ylcarbamoyl}-propyl)-acrylamide] | 43 nM | 6 nM | – | > 10000 nM | – | – | – |
| C=CC(=O)NCCC(=O)Nc1ccc2ncnc(Nc3ccc(F)c(Cl)c3)c2c1 [Example 54, N-{2-[4-(3-chloro-4-fluoro-phenylamino)-quinazolin-6-ylcarbamoyl]-ethyl}-acrylamide] | 321 nM | 46 nM | – | > 10000 nM | – | – | – |
| O=C(CCl)NCCC(=O)Nc1ccc2ncnc(Nc3ccc(OCc4cccc(F)c4)c(Cl)c3)c2c1 [Example 61, 3-(2-chloro-acetylamide)-N-{4-[3-chloro-4-(3-fluoro-benzyloxy)-phenylamino]-quinazolin-6-yl}-propionamide] | – | – | – | – | 168 nM | > 10000 nM | 98 nM |
| CC(C)(C)OC(=O)NCCC(=O)Nc1ccc2ncnc(Nc3ccc4c(cnn4Cc4ccccc4)c3)c2c1 [Example 77, {2-[4-(1-benzyl-1-indazol-5-ylamino)-quinazolin-6-ylcarbamoyl]-ethyl}-carbamic acid t-butylester] | – | – | – | – | 208 nM | > 10000 nM | 86 nM |
| C=CC(=O)NCCC(=O)Nc1ccc2ncnc(Nc3cncn3Cc3ccccc3)c2c1 [Example 79, N-{2-[4-(1-benzyl-1H-imidazol-5-ylamino)-quinazolin-6-ylcarbamoyl]-ethyl}-acrylamide] | 65 nM | 3 nM | – | > 10000 nM | – | – | – |
| C=CC(=O)NCCCC(=O)Nc1ccc2ncnc(Nc3ccc(OCc4cccc(F)c4)c(Cl)c3)c2c1 [Example 89, 4-acryloylamino-N-{4-[3-chloro-4-(3-fluoro-benzyloxy)-phenylamino]-quinazolin-6-yl}-butyramide] | 173 nM | 19 nM | – | > 10000 nM | – | – | – |
| N#CCC(=O)NCCCC(=O)Nc1ccc2ncnc(Nc3ccc(OCc4cccc(F)c4)c(Cl)c3)c2c1 [Example 93, N-{4-[3-chloro-4-(3-fluoro-benzyloxy)-phenylamino]-quinazolin-6-yl}-4-(2-cyano-acetylamino)-butyramide] | 324 nM | 33 nM | – | > 10000 nM | – | – | – |
| C=CC(=O)NCCCC(=O)Nc1ccc2ncnc(Nc3ccc(Oc4ccc(C)nc4)c(C)c3)c2c1 [Example 101, 4-acryloylamino-N-{4-[3-methyl-4-(6-methyl-pyridin-3-yloxy)-phenylamino]-quinazolin-6-yl}-butyramide] | 786 nM | 21 nM | – | > 10000 nM | – | – | – |
| O=C(CCl)NCCCC(=O)Nc1ccc2ncnc(Nc3ccc(OCc4cccc(F)c4)c(Cl)c3)c2c1 [Example 102, 4-(2-chloro-acetylamino)-N-{4-[3-chloro-4-(3-fluoro-benzyloxy)-phenylamino]-quinazolin-6-yl}-butyramide] | 345 nM | 80 nM | – | > 10000 nM | – | – | – |
| O=C(CN1CCOCC1)NCCCC(=O)Nc1ccc2ncnc(Nc3ccc(OCc4cccc(F)c4)c(Cl)c3)c2c1 [Example 103, N-{4-[3-chloro-4-(3-fluoro-benzyloxy)-phenylamino]-quinazolin-6-yl}-4-(2-morpholin-4-yl-acetylamino)-butyramide] | 227 nM | 42 nM | – | > 10000 nM | – | – | – |
| CN(C)CC(=O)NCCCC(=O)Nc1ccc2ncnc(Nc3ccc(OCc4cccc(F)c4)c(Cl)c3)c2c1 [Example 104, N-{4-[3-chloro-4-(3-fluoro-benzyloxy)-phenylamino]-quinazolin-6-yl}-4-(2-dimethylamino-acetylamino)-butyramide] | 254 nM | 22 nM | – | > 10000 nM | – | – | – |
| CSCC(=O)NCCC(=O)Nc1ccc2ncnc(Nc3ccc(OCc4cccc(F)c4)c(Cl)c3)c2c1 [Example 117, N-{4-[3-chloro-4-(3-fluoro-benzyloxy)-phenylamino]-quinazolin-6-yl}-3-(2-methanesulfanyl-acetylamino)-propionamide] | – | – | – | – | 336 nM | > 10000 nM | 40 nM |
| CCNC(=O)NCCC(=O)Nc1ccc2ncnc(Nc3ccc(OCc4cccc(F)c4)c(Cl)c3)c2c1 [Example 123, N-{4-[3-chloro-4-(3-fluoro-benzyloxy)-phenylamino]-quinazolin-6-yl}-3-(3-ethyl-ureido)-propionamide] | 240 nM | 36 nM | – | > 10000 nM | – | – | – |
| C=CC(=O)NCCC(=O)Nc1ccc2ncnc(Nc3ccc(OCc4ccccn4)c(Cl)c3)c2c1 [Example 131, N-(2-{4-[3-chloro-4-(pyridin-2-ylmethoxy)-phenylamino]-quinazolin-6-ylcarbamoyl}-ethyl)-acrylamide] | 37 nM | 3 nM | 4 nM | – | – | – | – |
| C#Cc1cccc(Nc2ncnc3cc(OCCOC)c(OCCOC)cc23)c1 [Tarceva, reference compound] | 59 nM | 891 nM | – | > 10000 nM | – | – | – |

Second part, the compound after the results:

| IC50 (A431 (ATCC: CRL-1555); Homo sapiens, A-431, 72 h) | IC50 (SK-Br3 (ATCC: HTB-30); Homo sapiens, SK-BR-3, 72 h) | IC50 [1] | IC50 (SW-620 (ATCC: CCL-227); Homo sapiens, SW-620, 72 h) | IC50 (A431 (ATCC: CRL-1555); [2]) | IC50 (SW-620 (ATCC: CCL-227); [3]) | IC50 (SK-Br3 (ATCC: HTB-30); [4]) | Compound |
| --- | --- | --- | --- | --- | --- | --- | --- |
| 948 nM | 151 nM | 30 nM | – | – | – | – | COCC(=O)NCCC(=O)Nc1ccc2ncnc(Nc3ccc(OCc4cccc(F)c4)c(Cl)c3)c2c1 [Example 20-2, N-{4-[3-chloro-4-(3-fluoro-benzyloxy)-phenylamino]-quinazolin-6-yl}-3-(2-methoxy-acetylamino)-propionamide] |
| 340 nM | 102 nM | – | > 10000 nM | – | – | – | COCC(=O)NCC(C)C(=O)Nc1ccc2ncnc(Nc3ccc(OCc4cccc(F)c4)c(Cl)c3)c2c1 (stereo not drawn) [Example 42-2, N-{4-[3-chloro-4-(3-fluoro-benzyloxy)-phenylamino]-quinazolin-6-yl}-3-(2-methoxy-acetylamino)-2-methyl-propionamide] |
| 12 nM | 3 nM | – | > 10000 nM | – | – | – | C=CC(=O)NCCC(=O)Nc1cc2c(Nc3ccc(OCc4cccc(F)c4)c(Cl)c3)ncnc2cc1OCCCN1CCOCC1 [Example 85-2, N-{2-[4-[3-chloro-4-(3-fluoro-benzyloxy)phenylamino]-7-(3-morpholin-4-yl-propoxy)-quinazolin-6-ylcarbamoyl]-ethyl}-acrylamide] |
| 95 nM | 35 nM | – | > 10000 nM | – | – | – | COCC(=O)NCCCC(=O)Nc1ccc2ncnc(Nc3ccc(OCc4cccc(F)c4)c(Cl)c3)c2c1 [Example 87-2, N-{4-[3-chloro-4-(3-fluoro-benzyloxy)-phenylamino]-quinazolin-6-yl}-4-(2-methoxy-acetylamino)-butyramide] |
| 117 nM | 38 nM | – | > 10000 nM | – | – | – | COCC(=O)NCCCCC(=O)Nc1ccc2ncnc(Nc3ccc(OCc4cccc(F)c4)c(Cl)c3)c2c1 [Example 115-2, 5-(2-methoxy-acetylamino)-pentanoic acid {4-[3-chloro-4-(3-fluoro-benzyloxy)-phenylamino]-quinazolin-6-yl}-amide] |
| 69 nM | 47 nM | 5 nM | – | – | – | – | C=CC(=O)NCCC(=O)N(C)c1ccc2ncnc(Nc3ccc(OCc4cccc(F)c4)c(Cl)c3)c2c1 [Example 139-5, N-[2-({4-[3-chloro-4-(3-fluoro-benzyloxy)-phenylamino]-quinazolin-6-yl}-methyl-carbamoyl)-ethyl]-acrylamide] |
